Reference: US20180348208A1, “Systems And Methods For Determining The Risk Of Severe Allergic Reaction To Allergen, And The Immunological Protection Afforded By Vaccines” (FlowMetric Life Sciences, priority 2017, published 2018)

Legend:
[1] = test system: leukocytes and CD3+ lymphocytes; experiment: Detection of leukocyte and lymphocyte activation markers involved in allergic response by flow cytometry; assay type: cell-based, Human
Description: Human whole blood was obtained from a normal control individual and from an individual with a severe allergy to Amoxicillin. The blood was diluted 1:5 in RPMI media, then stimulated with either 50 μM Amoxicillin for 20 minutes to 1 hour at 37° C. and 5% CO2. In parallel, blood samples were treated with a buffer as a stimulation control, or with 50 μg/mL of the potent polymorphonuclear leukocyte (PMN) chemotactic factor fMLP (N-Formylmethionyl-leucyl-phenylalanine).
Following the stimulation period, blood samples were stained with fluorescently-labeled antibodies to leukocyte activation markers CD294, CD203a or lymphocyte activation markers CD71 and CD69 with the use of CD3 to identify CD3+ lymphocytes. Each of the samples were then incubated, protected from light, for a minimum of 30 minutes. Following incubation with the labeled antibodies, the samples were washed with BSA Stain Buffer. In parallel, samples were separately incubated with isotype control antibodies.
Following washing, red blood cells were lysed with 1 mL of 1× Pharm Lyse™ by incubation with this reagent for 15 minutes. Samples were centrifuged, and washed again with BSA Stain Buffer.
Samples and controls were then run through a FACS CANTO flow cytometer. The flow cytometer was calibrated, and compensation was performed according to standard requirements and procedures. Cells were suspended at a density of 1,000,000 cells per mL in a tube, and run through the flow cytometer for analysis. One hundred thousand events were collected per analysis.
Live cells were gating based on their low staining with FVS450. Lymphocytes and leukocytes were identified by their forward (FSC) and side (SSC) scatter profiles, and gated accordingly. CD+ lymphocytes were then further analyzed according to activation markers CD69 and CD71.

T cells = experiment: T cell activation detection by flow cytometry in stimulated human whole blood; assay type: cell-based
Description: Human whole blood can be obtained and diluted 1:5 in RPMI media and stimulated with 0, 20, 40, 60, 80, and 100 μg/mL (of blood) of phytohemagglutinin (PHA) for about 20 hours at 37° C. and 5% CO2. In parallel, blood samples can be treated with a buffer (no PHA) as a stimulation control. Following the stimulation period, blood samples can be stained with fluorescently-labeled antibodies to T cell markers, including CD4, CD25, CD69, and CD71. Fluorescently-labeled (FITC, APC, PE, PerCP-Cy5, and APC-Cy7) antibodies can be mixed with 100 μIL of PHA-stimulated blood samples or with unstimulated blood control samples in parallel, and each of the samples were can then be incubated, protected from light, for a minimum of 30 minutes. Following incubation with the labeled antibodies, the samples can be washed with BSA Stain Buffer. In parallel, samples can be separately incubated with isotype control antibodies. Following washing, red blood cells can be lysed with 1 mL of 1× Pharm Lyse™ by incubation with this reagent for 15 minutes. Samples can be centrifuged, and washed again with BSA Stain Buffer. All samples can be fixed and permeabilized with eBiosciences Fix and Perm solutions according to the manufacturer's instructions. FoxP3 can be added to the fixed/permeabilized samples, and the samples can be incubated for a minimum of 30 minutes. Samples can be washed with BSA Stain Buffer, and 1 μL of Violet Live/Dead is added to the samples and incubated, protected from light, for a minimum of 15 minutes. Samples and controls can be run through a FACSAria III flow cytometer. The flow cytometer can be calibrated, and compensation can be performed according to standard requirements and procedures. Cells can be suspended at a density of 1,000,000 cells per mL in a tube, and run through the flow cytometer for analysis. One hundred thousand events can be collected per analysis. T cells can be identified by their forward (FSC) and side (SSC) scatter profiles, and gated accordingly. T cells can further be analyzed according to the T cell marker profiles (Fox3, CD4, CD25, cD69, and CD71).

[2] = blood from allergic donor (highly sensitive to Amoxicillin), 50 μM, 20 minutes to 1 hour
[3] = blood from non-allergic donor, 50 μM, 20 minutes to 1 hour
[4] = fMLP-stimulated blood samples, 50 μg/mL
[5] = human whole blood diluted 1:5 in RPMI, PHA stimulation about 20 hours at 37° C.
[6] = increasing amounts of PHA, 0 to 100 micrograms over 20 microgram increments

CC1(C)S[C@@H]2[C@H](NC(=O)[C@H](N)c3ccc(O)cc3)C(=O)N2[C@H]1C(=O)O [Amoxicillin]
expression of CD69 and CD71 on CD3+ lymphocytes [1, 2]: increased expression | expression of CD294 and CD203a on leukocytes [1, 2]: increased expression | CD71 or CD69 on lymphocytes [1, 3]: did not show an increase | CD294 and CD203a on leukocytes [1, 3]: did not show an increase

CSCC[C@H](NC=O)C(=O)N[C@@H](CC(C)C)C(=O)N[C@@H](Cc1ccccc1)C(=O)O [fMLP, N-Formylmethionyl-leucyl-phenylalanine]
CD294 and CD203a expression on leukocytes [1, 4]: substantial increase | expression of CD71 and CD69 on lymphocytes [1, 4]: significant increase

Phytohemagglutinin [PHA]
stimulation of normal whole blood CD71, CD69, FoxP3 and CD25+ cells (T cells; 20-100 μg/mL PHA): stimulated | CD4 expression on the T cells (T cells; [5]): substantial increase | expression of CD25, CD69, CD71, and FoxP3 on the T cells (T cells; [5]): significant increase | level of CD69 expression on CD4+ cells (T cells; increasing amounts of PHA, 0 to 100 micrograms): enhancement | level of CD71 expression on CD4+ cells (T cells; [6]): enhancement | level of FoxP3 expression on CD4+ cells (T cells; [6]): enhancement
